In the NIST ThermoML archive (doi:10.1016/j.jct.2018.12.025):

Assay: relative permittivity at various frequencies (dimensionless)
Settings: 96.5 kPa, Liquid, Frequency=1 MHz, Parallel plate capacitor

O [water]
Settings | relative permittivity
298.15 K | 79.68
308.15 K | 75.51
318.15 K | 71.42
328.15 K | 68.44
338.15 K | 64.51
348.15 K | 60.78
